Results: PubChem BioAssay AID1996
In brackets after ≈: the same amount, converted by molar mass.

Details: buffer; pH 7.4; 200.0 µM

| SMILES | solubility kinetic |
| --- | --- |
| CSc1ncccc1C(=O)OCCCC(=O)c1ccc(F)cc1 | 3.8 µg/mL (≈ 11.4 µM) |
| CC1CCCN(S(=O)(=O)c2cccc(C(=O)NCC3CCCO3)c2)C1 (stereo not drawn) | > 55 µg/mL |
| CN(C)/C(=N\S(=O)(=O)c1ccccc1)c1ccc(F)cc1 | > 46 µg/mL |
| CCc1ccc(CN2CCN(c3ncccn3)CC2)cc1 | 29.9 µg/mL (≈ 106 µM) |
| Cc1cccc(C)c1OCC(=O)Nc1ccncc1 | 21.8 µg/mL (≈ 85.1 µM) |
| Cn1c(N)c(C(=O)CSc2nnc(C3CC3)n2-c2ccccc2)c(=O)[nH]c1=O | > 59.8 µg/mL |
| CC(C)c1nc(SCC(=O)c2ccc(F)cc2)c2ccccc2n1 | 1.7 µg/mL (≈ 4.99 µM) |
| CCc1ccccc1N1CC(C(=O)N2Cc3ccccc3CC2C(N)=O)CC1=O (stereo not drawn) | > 58.7 µg/mL |
| Cc1ccc(NCC(=O)Nc2ccc(Br)cc2)cc1C | 3.7 µg/mL (≈ 11.1 µM) |
| Cc1ccc(C(=O)C2=C(O)C(=O)N(Cc3ccco3)C2c2cccc(Cl)c2)o1 (stereo not drawn) | > 59.7 µg/mL |
| O=C(COc1ccccc1)N1CCCC1 | 26.7 µg/mL (≈ 130 µM) |
| CNC(=O)Oc1ccc2c(c1)[C@]1(C)CCN(C)C1N2C.O=C(O)c1ccccc1O (stereo partly drawn) | > 62 µg/mL |
| CCCCNC(=O)C1CC(=O)N(CCc2ccccc2)C1 (stereo not drawn) | > 43.3 µg/mL |
| Cc1cc(=O)oc2cc(NC(=O)Cc3ccccc3)ccc12 | 1.1 µg/mL (≈ 3.75 µM) |
| CCCNC(=O)Nc1cccc(C(=O)OC)c1 | > 35.4 µg/mL |
| Cn1cc(C(=O)N2CCCCC2)c2ccccc21 | > 36.3 µg/mL |
| N#C/C(=C(O)\C=C\c1ccccc1)c1nc2ccccc2[nH]1 | < 0.2 µg/mL |
| N#CCSc1nc2ccccc2o1 | 14.3 µg/mL (≈ 75.2 µM) |
| CC(=O)c1ccc(N2CCN(C(=O)Nc3cccc(F)c3)CC2)cc1 | 4.8 µg/mL (≈ 14.1 µM) |
| CCCCNC(=O)CN1C(=O)NC(CCc2ccccc2)C1=O (stereo not drawn) | 33.8 µg/mL (≈ 106 µM) |
| CC(=O)Nc1cc[n+](CC(=O)c2cccc([N+](=O)[O-])c2)cc1.[Cl-] | 40.3 µg/mL |
| COc1ccc(C2(C)NC(=O)N(CC3CCCCC3)C2=O)cc1 (stereo not drawn) | > 47.5 µg/mL |
| COc1ccc2oc(C(=O)OC(C)C(=O)N3C(C)CCCC3C)c(C)c2c1 (stereo not drawn) | 8.4 µg/mL (≈ 22.5 µM) |
| COC(=O)COc1ccc(S(=O)(=O)N2CCCCCC2)cc1 | 42.9 µg/mL (≈ 131 µM) |

| SMILES | solubility kinetic |
| --- | --- |
| COc1ccc(-c2nc(C=O)cs2)cc1 | 26.2 µg/mL (≈ 119 µM) |
| CCN(CC)CC(=O)Nc1sc(C)c(C)c1C(=O)c1ccc(C)cc1 | 4.6 µg/mL (≈ 12.8 µM) |
| CC1=C(C#N)S(=O)(=O)C(C#N)C(c2ccccc2)C1 (stereo not drawn) | 30.1 µg/mL (≈ 111 µM) |
| O=C(CN1C(=O)NC2(CCCC2)C1=O)Nc1ccc(Cl)cc1F | 49.8 µg/mL (≈ 147 µM) |
| CC(C)(C)OC(=O)N1CCCN(C(=O)Nc2ccccc2)CC1 | 46.3 µg/mL (≈ 145 µM) |
| O=[N+]([O-])c1cnc2ccc3ccccc3c2c1 | 3.1 µg/mL (≈ 13.8 µM) |
| CCOC(=O)c1ccc(NC(=O)c2cc(=O)[nH]c3ccccc23)cc1 | < 0.4 µg/mL |
| COc1ccc(C(=O)/C=C/NCc2ccc(F)cc2)cc1OC | > 47.3 µg/mL |
| Cc1cc(C(=O)CN2C(=O)NC(CC(C)C)C2=O)c(C)n1C1CC1 (stereo not drawn) | 22.7 µg/mL (≈ 68.5 µM) |
| OCCC1CN(Cc2cccn2-c2ncccn2)CCN1C1CCCC1 (stereo not drawn) | 51.5 µg/mL (≈ 145 µM) |
| Cc1ccnc(NC(=O)c2ccco2)n1 | > 30.5 µg/mL |
| COc1ccc(Cl)cc1C(=O)NCc1ccc2c(c1)OCO2 | 34.3 µg/mL (≈ 107 µM) |
| COc1ccc(C(=O)NCC(=O)N2CCN(C(=O)c3ccco3)CC2)cc1[N+](=O)[O-] | > 62.5 µg/mL |
| COc1ccccc1CCNC(=O)c1c(C)nn(CC(C)C)c1Cl | > 52.5 µg/mL |
| COCCNC(=S)NCCc1ccc(Cl)cc1Cl | > 46.1 µg/mL |
| COc1ccccc1N1CCN(C(=O)c2cc(S(=O)(=O)N3CCCCC3)ccc2C)CC1.Cl | 68.1 µg/mL |
| CC1CC1C(=O)Nc1nc2ccc(Cl)cc2s1 (stereo not drawn) | 0.6 µg/mL (≈ 2.25 µM) |
| Cc1ccc(/C=C2/C(=O)ON=C2c2ccccc2)o1 | 38 µg/mL (≈ 150 µM) |
| COc1ccc(CC(=S)NCCc2ccccc2)cc1 | 13 µg/mL (≈ 45.5 µM) |
| NC(=O)c1ccc(NC(=O)COC(=O)C2CC3C=CC2C3)cc1 (stereo not drawn) | > 47.2 µg/mL |
| Cc1cc(C(=O)OCC(=O)Nc2cccc([N+](=O)[O-])c2)c(C)o1 | 3.8 µg/mL (≈ 11.9 µM) |
| Cc1ccc(C(=O)O)cc1NC(=O)Nc1cccc2ccccc12 | > 48.1 µg/mL |
| C/C(=N\NC(=O)c1ccn(C)n1)c1ccco1 | > 34.8 µg/mL |
| Cc1cc(=O)oc2cc(OCC(=O)NC3CCCCC3)ccc12 | 7.5 µg/mL (≈ 23.8 µM) |

| SMILES | solubility kinetic |
| --- | --- |
| CCOC(=O)NN1C(=O)c2ccccc2NC1c1cccnc1 (stereo not drawn) | > 46.8 µg/mL |
| Cn1c(NNC(=O)c2c(F)cccc2F)cc(=O)n(C)c1=O | > 46.5 µg/mL |
| CC(=O)Nc1ccc(C(=O)OCC(=O)Nc2ccc(N3CCOCC3)cc2)cc1 | 7 µg/mL (≈ 17.6 µM) |
| Cn1cnc(S(=O)(=O)Nc2ccc(OC(F)F)cc2)c1 | > 45.5 µg/mL |
| Cc1noc(NS(=O)(=O)c2ccc(NC(=O)/C=C/c3ccccc3)cc2)c1C | > 59.6 µg/mL |
| CCn1c(CNC(=O)c2ccccc2F)cc2ccccc21 | 2 µg/mL (≈ 6.75 µM) |
| COc1nc(N)nc(NC(=O)c2cccs2)c1N=O | 25.2 µg/mL (≈ 90.2 µM) |
| Cc1nc(SCC(=O)NCCN2C(=O)CSC2=O)nc(C)c1C | > 53.2 µg/mL |
| O=C(CSc1cccc[n+]1[O-])c1ccc(Cl)s1 | 38.3 µg/mL (≈ 134 µM) |
| Cc1cc(C(=O)NC2CCCc3ccccc32)ccc1[N+](=O)[O-] (stereo not drawn) | 10.3 µg/mL (≈ 33.2 µM) |
| Cc1[nH]c2ccccc2c1C(=O)C(=O)N(C)C1CCCCC1 | > 44.8 µg/mL |
| COc1ccccc1C(=O)Nc1nc2cc3c(cc2s1)OCO3 | < 0.4 µg/mL |
| COc1ccc(C(CNC(=O)CN(C)S(=O)(=O)c2ccc(C)cc2)N2CCCC2)cc1 (stereo not drawn) | > 66.8 µg/mL |
| O=C(COC(=O)c1ccccc1Br)Nc1cccnc1Cl | 18.2 µg/mL (≈ 49.2 µM) |
| Fc1cnc(Cl)nc1N1CCN(c2ccccc2)CC1 | 17.4 µg/mL (≈ 59.4 µM) |
| O=C(CSc1cccc2cccnc12)Nc1cc(C(=O)O)cc(C(=O)O)c1 | 52 µg/mL (≈ 136 µM) |
| O=C(COC(=O)CNS(=O)(=O)c1cc(C(F)(F)F)ccc1Cl)NC1CC1 | > 62.2 µg/mL |
| CN(C)c1nc(NCc2ccccc2)nc(SCC(N)=O)n1 | 43.7 µg/mL (≈ 137 µM) |
| COc1cc(CN2CCCC(C)C2)ccc1OCc1ccccc1 (stereo not drawn) | 42.9 µg/mL (≈ 132 µM) |
| CCOc1ccc2c(c1)c(C(C)=O)c(C)n2Cc1ccco1 | < 0.6 µg/mL |
| O=C1CN(C(=O)c2ccccc2Cl)c2ccccc2N1 | > 43 µg/mL |
| COc1ccc(/C=N/NC(=O)c2ccc[nH]2)cc1 | > 36.5 µg/mL |
| Cc1ccccc1CC(=O)N1CC(C)OC(C)C1 (stereo not drawn) | > 37.1 µg/mL |
| Cc1cc(S(=O)(=O)Nc2ccc(C(=O)NCC3CCCO3)cc2)ccc1F (stereo not drawn) | 1 µg/mL (≈ 2.55 µM) |

| SMILES | solubility kinetic |
| --- | --- |
| Cc1ccccc1OCC(=O)OCC(=O)NC1CC1 | > 39.5 µg/mL |
| N#Cc1ccccc1NC(=O)CN1CCOCC1 | > 36.8 µg/mL |
| CN1CCN(c2ccccc2/C=N/NC(=O)c2cccnc2)CC1 | > 48.5 µg/mL |
| Nc1nc(CCOc2ccc(F)cc2)cs1 | 34.3 µg/mL (≈ 144 µM) |
| C=CCN1C(=O)C2C3CC(=O)C(c4ccccc43)C2C1=O (stereo not drawn) | > 42.2 µg/mL |
| CNS(=O)(=O)c1cccc(C(=O)OCC(=O)c2ccc3[nH]c(=O)[nH]c3c2)c1 | > 58.4 µg/mL |
| CCc1cc2c(N[C@@H](Cc3ccccc3)C(=O)O)ncnc2s1 | > 49.1 µg/mL |
| CC(=O)c1ccc(NC(=O)C2CC2c2ccccc2)cc1 (stereo not drawn) | 9.4 µg/mL (≈ 33.7 µM) |
| Cc1cc(C)c(SCCc2ccncc2)c(C)c1 | 3.1 µg/mL (≈ 12 µM) |
| COC(OC)C1Nc2ccccc2C(=O)N1c1ccc(F)cc1 (stereo not drawn) | > 47.4 µg/mL |
| Cc1cc(C)cc(NC(=O)N2CCc3ccccc3C2)c1 | 1.3 µg/mL (≈ 4.64 µM) |
| CN1CCN(c2ccc(NC(=O)c3ccc(Cl)cc3)cn2)CC1 | > 49.6 µg/mL |
| Cc1ccc(S(=O)(=O)N2CCN(c3ncnc4sccc34)CC2)cc1 | 17.5 µg/mL (≈ 46.7 µM) |
| CCn1c(Oc2ccccc2C)nc2c1c(=O)n(C)c(=O)n2C | > 47.2 µg/mL |
| CCN1CCN(CCC(=O)Nc2ccc(F)c(F)c2)CC1 | > 44.6 µg/mL |
| Cc1cc(SC(C)C(=O)O)nc2ccccc12 (stereo not drawn) | > 37.1 µg/mL |
| COc1ccc(CN2CCc3ccccc3C2)c(OC)c1 | 29.6 µg/mL (≈ 104 µM) |
| CC1(C)CC(=O)c2cnc(N3CCc4ccccc43)nc2C1 | 0.4 µg/mL (≈ 1.36 µM) |
| COc1ccc(N(C)S(=O)(=O)c2c(C)noc2C)c(OC)c1 | > 49 µg/mL |
| Cn1c(=O)n(Cc2ccccc2Br)c2ccccc21 | 7.8 µg/mL (≈ 24.6 µM) |
| COc1ccc(CN=Cc2c(C(=O)O)[nH]c3ccccc23)cc1 | > 46.3 µg/mL |
| CN=C(Nc1cccnc1)c1ccccc1 | > 31.7 µg/mL |
| O=C1CCC(C(=O)N2CCOCC2)CN1Cc1ccc(Cl)cc1 (stereo not drawn) | > 50.5 µg/mL |
| Cc1nnc(SCC(=O)NCC2CCCO2)n1Cc1ccccc1 (stereo not drawn) | > 52 µg/mL |

| SMILES | solubility kinetic |
| --- | --- |
| O=C(O)c1sccc1NC(=O)c1c(Cl)cccc1Cl | > 47.4 µg/mL |
| CCOc1ccccc1NC1=NC2CS(=O)(=O)CC2S1 (stereo not drawn) | > 46.9 µg/mL |
| c1csc(-c2cc(N3CCCCC3)c3ccccc3n2)c1 | 1.1 µg/mL (≈ 3.74 µM) |
| O=C(Nc1ccc(Cl)c(S(=O)(=O)N2CCCC2)c1)c1cc(=O)[nH]c2ccccc12 | 14.5 µg/mL (≈ 33.6 µM) |
| Cc1cccc(NC(=O)CCCc2ccccc2)c1 | 31.3 µg/mL (≈ 124 µM) |
| O=C(Nc1ccc(F)cc1F)N1CCCCCC1 | > 38.1 µg/mL |
| CC(=O)Oc1ccc2occ(/C=N/c3cc(=O)[nH]c(=S)[nH]3)c(=O)c2c1 | > 53.6 µg/mL |
| CCN(CC)S(=O)(=O)c1ccc(=O)[nH]c1 | > 34.5 µg/mL |
| CCCCn1c(O)c(C(=O)/C=C/c2ccc3c(c2)OCO3)c(=O)[nH]c1=O | > 53.8 µg/mL |
| Cc1ccccc1NCc1ccc([N+](=O)[O-])s1 | 13.7 µg/mL (≈ 55.2 µM) |
| Cc1ccc(S(=O)(=O)N2CCCC(N3CCOCC3)C2)cc1Cl (stereo not drawn) | > 53.8 µg/mL |
| CCNS(=O)(=O)c1ccc(CCC(=O)N2CCC(C)CC2)cc1 | 49 µg/mL (≈ 145 µM) |
| Cc1nc(Sc2ccc(Cl)cc2)c(C#N)c(C)c1[N+](=O)[O-] | < 0.2 µg/mL |
| O=C(CNC(=O)c1ccc(Br)cc1)NCc1cccnc1 | 49.3 µg/mL (≈ 142 µM) |
| COc1ccc(NC(=O)CCCOc2ccc(Cl)c(C)c2)cc1S(=O)(=O)N1CCOCC1 | 15.3 µg/mL (≈ 31.7 µM) |
| CC(C)CNC(=S)N1CCC(Cc2ccccc2)CC1 | 9.3 µg/mL (≈ 32 µM) |
| Cc1cc2oc(=O)cc(CN(C)Cc3ccccc3Cl)c2cc1C | < 0.7 µg/mL |
| CN1CCN(c2ccc([N+](=O)[O-])c(Sc3ccccn3)c2)CC1 | > 49.6 µg/mL |
| NC(=O)COC(=O)c1ccc(S(=O)(=O)NCc2ccco2)cc1 | > 50.8 µg/mL |
| CCN(CC)CCCNCC(=O)Nc1ccc2c(c1)CCC2 | 24.3 µg/mL (≈ 80.1 µM) |
| CCC1CCC(N2CCN(c3ccc(F)cc3)CC2)CC1 (stereo not drawn) | 24.1 µg/mL (≈ 83 µM) |
| NC(=O)Cn1nc([N+](=O)[O-])nc1Oc1ccccc1F | > 42.2 µg/mL |
